In US12421211B2, “Heterocyclic compounds” (Hoffmann-La Roche Inc., priority 2021, dated 2025):
In brackets after ≈: the same amount, converted by molar mass. Structures can show the parent of a compound that is named as a salt. Where two headings read alike, the source gives them in different places.

Assays:
[1] = tested on: Acinetobacter baumannii ATCC17961; assay: Antimicrobial susceptibility testing: 90% growth inhibitory concentration (IC90) determination; type: cell-based; settings: Acinetobacter baumannii, ATCC17961, 16 h, read-out: ATCC 17961 IC90
How it was run: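 A. baumannii ATCC17961 at ~5×10^5 CFU/ml in Iso-Sensitest broth exposed to 10-point twofold dilutions (e.g. 50–0.097 μM final), 35±2° C. OD600 read every 20 minutes over 16h; IC50 and IC90 derived from inhibition during logarithmic growth.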

[2] = tested on: Acinetobacter baumannii ATCC17978; assay: Minimal Inhibitory Concentration (MIC) assay; type: cell-based; settings: read-out: MIC AB. ATCC17978
Protocol: Minimal Inhibitory Concentration Protocol (MIC) Assay:
Table 2 provides the in vitro potency of the compounds of present invention obtained against the strain Acinetobacter baumannii ATCC17978, which was assessed by an MIC (Minimal Inhibitory Concentration) assay as follows.
Test compounds were prepared from 10 mM DMSO stock solutions. The top dose was diluted from 10 mM to 2.5 mM by DMSO, followed by serial 2-fold 11 points dilutions in DMSO in a master plate (Greiner, Cat No: 651201). 2 μL compounds were transferred from the master plate into a new 96-well assay plate (Costar, 3599).
The growth medium […] Mueller Hinton Broth (CAMHIB) was prepared by adding 22 g powder (BD, 212322) in 1 L purified water, autoclaved, and supplemented with sterilized CaCl2 (20 mg per liter) and MgCl2 (10 mg per liter).
Vials of each of the test microorganisms were maintained frozen in the vapor phase of a liquid nitrogen freezer. Took out the bacterial strain ATCC 17978 from liquid nitrogen freezer, thawed it at room temperature, and diluted the bacterial in the CAMHB medium to achieve a final inoculum of 2×10^5 CFU/mL. 98 μL of the adjusted bacteria suspension was dispensed to the assay plate and pipetted 5 times.
Then the assay plates were incubated for 20 hours at 35±2° C. in ambient air with humidity. Following incubation, MIC […] value, the lowest concentration of drug that inhibits visible growth of the microorganism, was recorded by visual judgment of bacterial growth through magnification mirror of MIC reader, and the assay plates were photographed with Qcount system as image raw data. Meanwhile, the D600 of assay plates was recorded with SpectraMax Plus384 as GD raw data.

[3] = 90% growth inhibitory concentration, Acinetobacter baumannii ATCC17961, Iso-Sensitest broth, OD 600 nm over 16 h
[4] = Acinetobacter baumannii ATCC17978, CAMHB medium, 20 hours at 35±2° C., visual reading
[5] = Acinetobacter baumannii, ATCC17978, 20 h

| SMILES | MIC [2, 4] [µM] | further results |
| --- | --- | --- |
| COCCn1ncc(-c2ccc(-c3cnc(C(=O)Nc4ccc(C(=O)N5CCN(C(=O)C6CC[N+](C)(CCS(N)(=O)=O)CC6)CC5)c(Cl)c4)n3C)c(F)c2F)c1C (stereo not drawn) [Example B34, N-[3-chloro-4-[4-[1-methyl-1-(2-sulfamoylethyl)piperidin-1-ium-4-carbonyl]piperazine-1-carbonyl]phenyl]-5-[2,3-difluoro-4-[1-(2-methoxyethyl)-5-methyl-pyrazol-4-yl]phenyl]-1-methyl-imidazole-2-carboxamide; formate] | – | MIC [2, 5]: 0.65 µM |
| Cc1nn(CC(=O)NC2CCC[N+](C)(C)C2)cc1-c1ccc(-c2cnc(C(=O)Nc3ccc(C(=O)N4CCN(C(=O)C5CC[N+](C)(C)CC5)CC4)c(Cl)c3)n2C)c(F)c1F (stereo not drawn) [Example G24, N-[3-chloro-4-[4-(1,1-dimethylpiperidin-1-ium-4-carbonyl)piperazine-1-carbonyl]phenyl]-5-[4-[1-[2-[0,1-dimethylpiperidin-1-ium-3-yl)amino]-2-oxo-ethyl]-3-methyl-pyrazol-4-yl]-2,3-difluoro-phenyl]-1-methyl-imidazole-2-carboxamide; diformate] | – | IC90 [1]: 0.508 µM; MIC [2, 5]: 3.85 µM |
| COCCn1nc(C)c(-c2ccc(-c3cnc(C(=O)Nc4ccc(C(=O)N5CCN(C(=O)C[N+]6(C)C[C@@H](N)[C@H](OC)C6)CC5)c(Cl)c4)n3C)c(F)c2F)c1C (mixture of isomers) [Example C13, N-[4-[4-[2-[(3R,4R)-3-amino-4-methoxy-1-methyl-pyrrolidin-1-ium-1-yl]acetyl]piperazine-1-carbonyl]-3-chloro-phenyl]-5-[2,3-difluoro-4-[1-(2-methoxyethyl)-3,5-dimethyl-pyrazol-4-yl]phenyl]-1-methyl-imidazole-2-carboxamide; formic acid; formate] | 1.22 | – |
| COCCn1cc(-c2ccc(-c3cnc(C(=O)Nc4ccc(C(=O)N5CCN(C(=O)C6CCNCC6O)CC5)c(C)c4)n3C)c(F)c2F)c(C)n1 (stereo not drawn) [Example D22, 5-[2,3-difluoro-4-[1-(2-methoxyethyl)-3-methyl-pyrazol-4-yl]phenyl]-N-[4-[4-(3-hydroxypiperidine-4-carbonyl)piperazine-1-carbonyl]-3-methyl-phenyl]-1-methyl-imidazole-2-carboxamide; formic acid] | – | IC90 [1]: 0.199 µM; MIC [2, 5]: 1.1 µM (≈ 0.775 µg/mL) |
| Cc1c(-c2ccc(-c3cnc(C(=O)Nc4ccc(C(=O)N5CCN(C(=O)C6CCNCC6)CC5)c(Cl)c4)n3C)c(F)c2F)cnn1CC(F)F [Example E1, N-[3-chloro-4-[4-(piperidine-4-carbonyl)piperazine-1-carbonyl]phenyl]-5-[4-[1-(2,2-difluoroethyl)-5-methyl-pyrazol-4-yl]-2,3-difluoro-phenyl]-1-methyl-imidazole-2-carboxamide] | 0.56 (≈ 0.4 µg/mL) | – |
| COCCn1ncc(-c2ccc(-c3cnc(C(=O)Nc4ccc(C(=O)N5CCN(C(=O)C6CCNCC6)CC5)c(Cl)c4)n3C)c(Cl)c2F)c1C [Example E4, 5-[2-chloro-3-fluoro-4-[1-(2-methoxyethyl)-5-methyl-pyrazol-4-yl]phenyl]-N-[3-chloro-4-[4-(piperidine-4-carbonyl)piperazine-1-carbonyl]phenyl]-1-methyl-imidazole-2-carboxamide; formic acid] | 0.57 (≈ 0.414 µg/mL) | – |

More lines, main results first:

| MIC [2, 4] [µM] | SMILES | further results |
| --- | --- | --- |
| 2.5 | COCCn1cc(-c2ccc(-c3cnc(C(=O)Nc4ccc(C(=O)N5CCN(C(=O)C6CC[N+](C)(C)CC6)CC5)c(Cl)c4)n3C)c(F)c2F)c(-c2ccccc2)n1 [Example F49, N-[3-chloro-4-[4-(1,1-dimethylpiperidin-1-ium-4-carbonyl)piperazine-1-carbonyl]phenyl]-5-[2,3-difluoro-4-[1-(2-methoxyethyl)-3-phenyl-pyrazol-4-yl]phenyl]-1-methyl-imidazole-2-carboxamide; formate] | IC90 [1, 3]: 1.52 µM |
| 0.66 | CO[C@H]1CCCC[C@@H]1NC(=O)Cn1cc(-c2ccc(-c3cnc(C(=O)Nc4ccc(C(=O)N5CCN(C(=O)C6CC[N+](C)(C)CC6)CC5)c(Cl)c4)n3C)c(F)c2F)c(C)n1 (racemic) [Example G32, N-[3-chloro-4-[4-(1,1-dimethylpiperidin-1-ium-4-carbonyl)piperazine-1-carbonyl]phenyl]-5-[2,3-difluoro-4-[1-[2-[[(1S,2S)-2-methoxycyelohexyl]amino]-2-oxo-ethyl]-3-methyl-pyrazol-4-yl]phenyl]-1-methyl-imidazole-2-carboxamide; formate] | IC90 [1, 3]: 0.185 µM |
| 1.24 | Cn1c(-c2ccc(-c3cn(CC(N)=O)nc3C(F)(F)F)c(F)c2F)cnc1C(=O)Nc1ccc(C(=O)N2CCN(C(=O)C3CC[N+](C)(C)CC3)CC2)c(Cl)c1 [Example F35, 5-[4-[1-(2-amino-2-oxo-ethyl)-3-(trifluoromethyl)pyrazol-4-yl]-2,3-difluoro-phenyl]-N-[3-chloro-4-[4-(1,1-dimethylpiperidin-1-ium-4-carbonyl)piperazine-1-carbonyl]phenyl]-1-methyl-imidazole-2-carboxamide; formate] | – |
| 0.32 | Cc1c(-c2ccc(-c3cnc(C(=O)Nc4ccc(C(=O)N5CCN(C(=O)C6CC[N+](C)(C)CC6)CC5)c(Cl)c4)n3C)c(F)c2F)cnn1CC(=O)Nc1ccccn1 [Example G19, N-[3-chloro-4-[4-(1,1-dimethylpiperidin-1-ium-4-carbonyl)piperazine-1-carbonyl]phenyl]-5-[2,3-difluoro-4-[5-methyl-1-[2-oxo-2-(2-pyridylamino)ethyl]pyrazol-4-yl]phenyl]-1-methyl-imidazole-2-carboxamide; formate] | – |
| 2.41 | COc1ccc(-c2[nH]ncc2-c2ccc(-c3cnc(C(=O)Nc4ccc(C(=O)N5CCN(C(=O)C6CC[N+](C)(C)CC6)CC5)c(Cl)c4)n3C)c(F)c2F)cc1 [Example I2, N-[3-chloro-4-[4-(1,1-dimethylpiperidin-1-ium-4-carbonyl)piperazine-1-carbonyl]phenyl]-5-[2,3-difluoro-4-[5-(4-methoxyphenyl)-1H-pyrazol-4-yl]phenyl]-1-methyl-imidazole-2-carboxamide; formate] | IC90 [1, 3]: 0.608 µM |
| 0.32 | Cc1nn(CC(=O)Nc2ccccc2)cc1-c1ccc(-c2cnc(C(=O)Nc3ccc(C(=O)N4CCN(C(=O)C5CC[N+](C)(C)CC5)CC4)c(Cl)c3)n2C)c(F)c1F [Example G5, 5-[4-[1-(2-anilino-2-oxo-ethyl)-3-methyl-pyrazol-4-yl]-2,3-difluoro-phenyl]-N-[3-chloro-4-[4-(1,1-dimethylpiperidin-1-ium-4-carbonyl)piperazine-1-carbonyl]phenyl]-1-methyl-imidazole-2-carboxamide; formate] | – |
| 1.41 | Cn1c(-c2ccc(-c3cn(C[C@H](O)CO)nc3C(F)(F)F)c(F)c2F)cnc1C(=O)Nc1ccc(C(=O)N2CCN(C(=O)C3CC[N+](C)(C)CC3)CC2)c(Cl)c1 [Example F8, N-[3-chloro-4-[4-(1,1-dimethylpiperidin-1-ium-4-carbonyl)piperazine-1-carbonyl]phenyl]-5-[4-[1-[(2S)-2,3-dihydroxypropyl]-3-(trifluoro-methyl)pyrazol-4-yl]-2,3-difluoro-phenyl]-1-methyl-imidazole-2-carboxamide; formate] | – |
| 2.57 | Cc1nn(CC(=O)NC2CCCCO2)cc1-c1ccc(-c2cnc(C(=O)Nc3ccc(C(=O)N4CCN(C(=O)C5CC[N+](C)(C)CC5)CC4)c(Cl)c3)n2C)c(F)c1F (stereo not drawn) [Example G21, N-[3-chloro-4-[4-(1,1-dimethylpiperidin-1-ium-4-carbonyl)piperazine-1-carbonyl]phenyl]-5-[2,3-difluoro-4-[3-methyl-1-[2-oxo-2-(tetrahydropyran-2-ylamino)ethyl]pyrazol-4-yl]phenyl]-1-methyl-imidazole-2-carboxamide; formate] | – |
| 0.58 | Cn1c(-c2ccc(-c3cn[nH]c3-c3cscn3)c(F)c2F)cnc1C(=O)Nc1ccc(C(=O)N2CCN(C(=O)C3CC[N+](C)(C)CC3)CC2)c(Cl)c1 [Example I5, N-[3-chloro-4-[4-(1,1-dimethylpiperidin-1-ium-4-carbonyl)piperazine-1-carbonyl]phenyl]-5-[2,3-difluoro-4-(5-thiazol-4-yl-1H-pyrazol-4-yl)phenyl]-1-methyl-imidazole-2-carboxamide; formate] | – |
| 2.52 | Cc1nn(CC(=O)NC2CCOC2)cc1-c1ccc(-c2cnc(C(=O)Nc3ccc(C(=O)N4CCN(C(=O)C5CC[N+](C)(C)CC5)CC4)c(Cl)c3)n2C)c(F)c1F (stereo not drawn) [Example G20, N-[3-chloro-4-[4-(1,1-dimethylpiperidin-1-ium-4-carbonyl)piperazine-1-carbonyl]phenyl]-5-[2,3-difluoro-4-[3-methyl-1-[2-oxo-2-(tetrahydrofuran-3-ylamino)ethyl]pyrazol-4-yl]phenyl]-1-methyl-imidazole-2-carboxamide; formate] | – |
